Measurements as given in ChEMBL document CHEMBL1201862, “PubChem BioAssay data set” (2004).
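Compound exposure: 48 hours, 5 concentrations, 96-well plates. At the GI50, growth is halved.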 The source made the active and inactive calls. Rule as the data show it: active = GI50 up to about 1.1 µM and inactive = higher.

Experiments:
Assay in all cases: NCI tumour cell line growth inhibition, 48 h
786-0 = system: 786-0
A549 = system: A549
ACHN = system: ACHN
CCRF-CEM = system: CCRF-CEM
COLO 205 = system: COLO 205
DLD-1 = system: DLD-1
DMS-114 = system: DMS-114
DMS-273 = system: DMS-273
EKVX = system: EKVX
HCC 2998 = system: HCC 2998
HCT-116 = system: HCT-116
HCT-15 = system: HCT-15
HL-60 = system: HL-60
HOP-18 = system: HOP-18
HOP-92 = system: HOP-92
HT-29 = system: HT-29
IGROV-1 = system: IGROV-1
K562 = system: K562
KM-20L2 = system: KM-20L2
KM12 = system: KM12
LOX IMVI = system: LOX IMVI
LXFL 529 = system: LXFL 529
M14 = system: M14
M19-MEL = system: M19-MEL
MOLT-4 = system: MOLT-4
Malme-3M = system: Malme-3M
NCI-H226 = system: NCI-H226
NCI-H23 = system: NCI-H23
NCI-H460 = system: NCI-H460
NCI-H522 = system: NCI-H522
OVCAR-3 = system: OVCAR-3
OVCAR-4 = system: OVCAR-4
OVCAR-5 = system: OVCAR-5
OVCAR-8 = system: OVCAR-8
RPMI-8226 = system: RPMI-8226
RXF 393 = system: RXF 393
SF-268 = system: SF-268
SF-295 = system: SF-295
SF-539 = system: SF-539
SK-MEL-28 = system: SK-MEL-28
SK-MEL-2 = system: SK-MEL-2
SK-MEL-5 = system: SK-MEL-5
SK-OV-3 = system: SK-OV-3
SN12C = system: SN12C
SNB-19 = system: SNB-19
SNB-75 = system: SNB-75
SNB-78 = system: SNB-78
SW-620 = system: SW-620
TK-10 = system: TK-10
U-251 = system: U-251
UACC-257 = system: UACC-257
UACC-62 = system: UACC-62
UO-31 = system: UO-31
XF498 = system: XF498
A498 = system: A498
CAKI-1 = system: CAKI-1
HOP-62 = system: HOP-62
RXF 631 = system: RXF 631
SR = system: SR

Measured: GI50

COc1c(C)cc2c(C(C)C)c(O)c(O)c(C=O)c2c1O
24.5 µM: HCT-15
inactive: 786-0 26.4 µM | A549 31.7 µM | ACHN 29.6 µM | CCRF-CEM 18.4 µM | COLO 205 16.4 µM | DLD-1 32.1 µM | DMS-114 17.8 µM | DMS-273 23 µM | EKVX 27 µM | HCC 2998 33.9 µM | HCT-116 20.7 µM | HL-60 25.9 µM | HOP-18 14.9 µM | HOP-92 35.3 µM | HT-29 13.3 µM | IGROV-1 30.5 µM | K562 17.2 µM | KM-20L2 19.7 µM | KM12 18.3 µM | LOX IMVI 24 µM | LXFL 529 24.8 µM | M14 23.2 µM | M19-MEL 26.5 µM | MOLT-4 55.7 µM | Malme-3M 16.2 µM | NCI-H226 18.2 µM | NCI-H23 18.3 µM | NCI-H460 25.9 µM | NCI-H522 25.6 µM | OVCAR-3 18.9 µM | OVCAR-4 17.2 µM | OVCAR-5 28.9 µM | OVCAR-8 27.4 µM | RPMI-8226 37.9 µM | RXF 393 21.6 µM | SF-268 38.4 µM | SF-295 28.8 µM | SF-539 17.8 µM | SK-MEL-28 22.4 µM | SK-MEL-2 15.8 µM | SK-MEL-5 16 µM | SK-OV-3 29.9 µM | SN12C 27.7 µM | SNB-19 35.7 µM | SNB-75 25.4 µM | SNB-78 27.9 µM | SW-620 40.6 µM | TK-10 37 µM | U-251 18 µM | UACC-257 21.4 µM | UACC-62 20.6 µM | UO-31 31.3 µM | XF498 39 µM

Cc1ccc(Nc2ccc(Nc3ccc(C)cc3S(=O)(=O)O)c3c2C(=O)c2ccccc2C3=O)c(S(=O)(=O)O)c1
> 100 µM: HCT-15
inactive: 786-0 > 100 µM | A498 > 100 µM | A549 > 100 µM | ACHN > 100 µM | CAKI-1 > 100 µM | CCRF-CEM > 100 µM | COLO 205 > 100 µM | DLD-1 > 100 µM | DMS-114 > 100 µM | DMS-273 > 100 µM | EKVX > 100 µM | HCC 2998 > 100 µM | HCT-116 > 100 µM | HL-60 > 100 µM | HOP-18 > 100 µM | HOP-62 > 100 µM | IGROV-1 > 100 µM | K562 > 100 µM | KM-20L2 > 100 µM | KM12 > 100 µM | LXFL 529 > 100 µM | M14 > 100 µM | MOLT-4 > 100 µM | Malme-3M > 100 µM | NCI-H226 > 100 µM | NCI-H460 > 100 µM | NCI-H522 > 100 µM | OVCAR-3 > 100 µM | OVCAR-4 > 100 µM | OVCAR-8 > 100 µM | RPMI-8226 > 100 µM | RXF 393 > 100 µM | RXF 631 > 100 µM | SF-268 > 100 µM | SF-539 > 100 µM | SK-MEL-28 > 100 µM | SK-MEL-2 > 100 µM | SK-MEL-5 > 100 µM | SK-OV-3 > 100 µM | SN12C > 100 µM | SNB-19 > 100 µM | SNB-75 94.6 µM | SNB-78 > 100 µM | SR > 100 µM | SW-620 > 100 µM | TK-10 > 100 µM | U-251 > 100 µM | UACC-257 > 100 µM | UACC-62 > 100 µM | UO-31 > 100 µM
